Experiments:
[1] = tested on: Plutella xylostella; assay: Test of efficacy on Plutella xylostella (cabbage leaf dip); format: in vivo; conditions: foliar, 72 h, cabbage leaves dipped 30 seconds, second instar larvae, after 3 days, 25° C., read-out: insecticidal rate
Method: (§1) 5 parts of the imidazo[1,2-a]pyridine compound of the present invention, 93.6 parts of dimethylformamide, and 1.4 parts of polyoxyethylene alkyl aryl ether were mixed and dissolved to prepare emulsion (I) containing 5% of the active ingredient.
(§2) An insecticidal rate was calculated according to the following expression: […]
The emulsion (I) was diluted with water such that the concentration of the compound of the present invention was 125 ppm. Cabbage leaves were dipped in the dilution for 30 seconds. The resulting cabbage leaves were placed in a petri dish. Five second instar larvae of Plutella xylostella were released thereto. The petri dish was placed in a thermostat chamber having a temperature of 25° C. and a humidity of 60%. Life and death were determined after 3 days from the release of the insects, and the insecticidal rate was calculated. The test was conducted in duplicate.

[2] = tested on: Phyllotreta striolata; assay: Test of efficacy on Phyllotreta striolata (spray on Qing geng cai seedlings); format: in vivo; conditions: 168 h, 125 ppm sprayed to Qing geng cai seedlings, adults, after 7 days, 25° C., read-out: insecticidal rate
Method: as §1, §2
The emulsion (I) was diluted with water such that the concentration of the compound of the present invention was 125 ppm to prepare a test chemical. The test chemical was sprayed to Qing geng cai seedlings (at the seventh true leaf stage) planted in 10-cm pots. The Qing geng cai seedlings were dried in air and then placed in a plastic cup. Ten Phyllotreta striolata adults were released thereto. The plastic cup was stored in a thermostat chamber having a temperature of 25° C. and a humidity of 65%. Life and death were determined after 7 days from the release of the insects, and the insecticidal rate was calculated. The test was conducted in duplicate.

Row | Structure (SMILES) | pest or weed control at 125 ppm [1] | pest or weed control at 125 ppm [2] | melting point
1 | CCS(=O)(=O)c1c(-c2ncc(-c3ccc(OC(F)(F)C(F)F)cc3)n2C)nc2ccc(C(F)(F)F)cn12 [a-1] | ≥ 80% | – | –
2 | CCS(=O)(=O)c1c(-c2ncc(-c3ccc(C(F)(F)F)nc3)n2C)nc2ccc(C(F)(F)F)cn12 [a-2] | ≥ 80% | ≥ 80% | –
3 | CCS(=O)(=O)c1c(-c2ncc(-c3ccc(OC(F)(F)F)cc3)n2C)nc2ccc(C(F)(F)F)cn12 [a-3, 3-(ethylsulfonyl)-2-(1-methyl-5-(4-(trifluoromethoxy)phenyl)-1H-imidazol-2-yl)-6-(trifluoromethyl)imidazo[1,2-a]pyridine] | ≥ 80% | ≥ 80% | –
4 | CCS(=O)(=O)c1c(-c2ncc(C(F)C(F)(C(F)(F)F)C(F)(F)F)n2C)nc2ccc(C(F)(F)F)cn12 (centres unmarked) [a-4] | ≥ 80% | – | –
5 | CCS(=O)(=O)c1c(-c2cn(-c3ccc(OC(F)(F)F)cc3)cn2)nc2ccc(C(F)(F)F)cn12 [a-5] | ≥ 80% | ≥ 80% | –
6 | CCS(=O)(=O)c1c(-c2ncn(-c3ccc(OC(F)(F)F)cc3)n2)nc2ccc(C(F)(F)F)cn12 [a-6] | ≥ 80% | ≥ 80% | –
7 | CCS(=O)(=O)c1c(-c2ncc(-c3ccc(OC(F)(F)F)c(Cl)c3)n2C)nc2ccc(C(F)(F)F)cn12 [a-7] | ≥ 80% | ≥ 80% | –
8 | CCS(=O)(=O)c1c(-c2ncc(-c3ccc(C(F)(F)F)c(Cl)c3)n2C)nc2ccc(C(F)(F)F)cn12 [a-8] | ≥ 80% | – | –
9 | CCS(=O)(=O)c1c(-n2cc(-c3ccc(OC(F)(F)F)cc3)cn2)nc2ccc(C(F)(F)F)cn12 [a-9] | ≥ 80% | – | –
10 | CCS(=O)(=O)c1c(-c2ncc(-c3ccc(OC(F)(F)F)cc3)n2C)nc2cc(C(F)(F)F)ccn12 [a-10] | ≥ 80% | ≥ 80% | –
11 | CCS(=O)(=O)c1c(-c2cn(/C=C(\F)C(F)(F)C(F)(F)F)cn2)nc2ccc(C(F)(F)F)cn12 [a-11] | ≥ 80% | ≥ 80% | –
12 | CCS(=O)(=O)c1c(-c2cn(CC(F)(F)C(F)(F)C(F)(F)F)cn2)nc2ccc(C(F)(F)F)cn12 [a-12] | ≥ 80% | ≥ 80% | –
13 | CCS(=O)(=O)c1c(-c2ncc(/C=C/C(F)(F)C(F)(F)F)n2C)nc2ccc(C(F)(F)F)cn12 [a-13] | ≥ 80% | ≥ 80% | –
14 | CCS(=O)(=O)c1c(-c2ncc(C=C(Br)Br)n2C)nc2ccc(C(F)(F)F)cn12 [a-14] | – | – | 233 to 235 °C
15 | CCS(=O)(=O)c1c(-c2ncc(C=C(Cl)Cl)n2C)nc2ccc(C(F)(F)F)cn12 [a-15] | – | – | 236 to 238 °C
16 | CCS(=O)(=O)c1c(-c2ncc(/C=C(/F)C(F)(F)C(F)(F)F)n2C)nc2ccc(C(F)(F)F)cn12 [a-16] | – | ≥ 80% | –
17 | CCS(=O)(=O)c1c(-c2ncc(/C=C(\F)C(F)(F)C(F)(F)F)n2C)nc2ccc(C(F)(F)F)cn12 [a-17] | ≥ 80% | ≥ 80% | –
18 | CCS(=O)(=O)c1c(-c2ncc(C=C(F)C(F)(F)C(F)(F)F)n2C)nc2cc(C(F)(F)F)ccn12 [a-19] | ≥ 80% | ≥ 80% | –
19 | CCS(=O)(=O)c1c(-c2ncc(C=C(F)C(F)(F)C(F)(F)F)n2C)nc2ccc(C(F)(F)F)cn12 [a-20] | ≥ 80% | ≥ 80% | –
20 | CCS(=O)(=O)c1c(-c2ncc(C=C(Cl)C(F)(F)F)n2C)nc2cc(C3CC3)ccn12 [a-21] | ≥ 80% | ≥ 80% | –
21 | CCS(=O)(=O)c1c(-c2ncc(C=C(Cl)C(F)(F)F)n2C)nc2cc(Cl)ccn12 [a-22] | ≥ 80% | ≥ 80% | –
22 | CCS(=O)(=O)c1c(-c2ncc(C=C(Cl)C(F)(F)F)n2C)nc2ccc(Cl)cn12 [a-23] | ≥ 80% | ≥ 80% | –
23 | CCS(=O)(=O)c1c(-c2ncc(/C=C(\Cl)C(F)(F)F)n2C)nc2cc(C(F)(F)F)ccn12 [a-24] | ≥ 80% | – | –
